Laboratory results reported in patent US6869783B1, “Method for producing chiral carboxylic acids from nitriles with the assistance of a nitrilase or microoganisms which contain a gene for the nitrilase” (BASF Aktiengesellschaft, priority 1998, dated 2005).

test system: nitrilase 1650; test: Conversion of various nitriles with nitrilase 1650 (NH4 ions in supernatant, microtiter plate); assay type: biochemical, Alcaligenes faecalis 1650; parameters: Activity: unit not given here; settings: 10 mM substrate, 2 g/l dry biomass, 30° C, 2 hours, pH 7.2

Which results are given for “α-(3-heptyl)-nitro-triacetonitrile [Substrate 14]”?
% conversion: 44.1%; Activity: 0.35

same assay, conditions: 10 mM substrate, 2 g/l dry biomass, 30° C, 2 hours, pH 7.2; average of a microtiter plate row

How did the “μmol/l (amount of NH4 ions produced in the supernatant)” value (shortened to “μmol/l”) turn out when “α-(3-heptyl)-nitro-triacetonitrile [Substrate 14]” was run?
Its value is 84.8 µmol/L.

same assay, conditions: pH 7.2

Which results are given for N#CCc1ccc(Br)cc1 [Substrate 6, 4-bromobenzyl cyanide]?
% conversion: 100%; Activity: 6.2; μmol/l (amount of NH4 ions produced in the supernatant): 1500.8 µmol/L

What does the source list for CCC(C#N)c1ccccc1 (stereo not shown) [Substrate 3, 2-phenylbutyronitrile]?
% conversion: 44.3%; Activity: 0.1; μmol/l (amount of NH4 ions produced in the supernatant): 24.4 µmol/L

Which results are given for CC(C#N)c1ccccc1 (stereo not shown) [Substrate 2, 2-phenylpropionitrile]?
% conversion: 70.2%; Activity: 4.1; μmol/l (amount of NH4 ions produced in the supernatant): 1001.1 µmol/L

Which results are given for N#CCc1ccccc1 [Substrate 4, benzyl cyanide]?
% conversion: 100%; Activity: 9.2; μmol/l (amount of NH4 ions produced in the supernatant): 2210.5 µmol/L

For CCCCC#N [Substrate 10, valeronitrile], which Activity is on record?
The Activity was 0.47.

And the “μmol/l” value?
The value was 113.4 µmol/L.

With N#CCc1ccc(Cl)cc1 [Substrate 5, 4-chlorobenzyl cyanide] as the molecule, how does the “% conversion” value read?
Its value is 100%.

And the Activity?
The Activity was 8.9.

And the “μmol/l” value?
The value was 2136.3 µmol/L.

With CCC#N [Substrate 7, propionitrile] as the molecule, how does the Activity read?
Its Activity is 0.02.

And the “μmol/l” value?
The value was 4.9 µmol/L.
